For 17 compounds, T/C results are on record in PubChem BioAssay AID328 (DTP/NCI, 2004).

This test has as its system BDF1 mice, P388 leukemia ip, median survival T/C. In words: NCI In Vivo Anticancer Drug Screen. Data for tumor model P388 Leukemia (intraperitoneal) in B6D2F1 (BDF1) mice. As to conditions: endpoint: median survival time, higher = longer survival. In outline: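 In tumour-bearing mice, survival after compound treatment is set against the vehicle group and given as a quotient.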

[1] abbreviates: dose: 100.0 mg/kg/injection, schedule: Q01DX009 (ip), vehicle: saline.
Setting [2] is: dose: 100.0 mg/kg/injection, schedule: Q04DX003 (ip), vehicle: Klucel (hydroxypropylcellulose) (HPC).
[3] abbreviates: dose: 400.0 mg/kg/injection, schedule: Q04DX003 (ip), vehicle: Klucel (hydroxypropylcellulose) (HPC).
Where [4] appears, read: dose: 50.0 mg/kg/injection, schedule: Q01DX009 (ip), vehicle: saline with Tween-80.
Setting [5] is: dose: 100.0 mg/kg/injection, schedule: Q01DX009 (ip), vehicle: saline with Tween-80.
The mark [6] stands for this setting: dose: 200.0 mg/kg/injection, schedule: Q01DX009 (ip), vehicle: saline with Tween-80.
[7] abbreviates: dose: 200.0 mg/kg/injection, schedule: Q04DX003 (ip), vehicle: saline with Tween-80.
The mark [8] stands for this setting: dose: 400.0 mg/kg/injection, schedule: Q04DX003 (ip), vehicle: saline with Tween-80.
[9] abbreviates: dose: 100.0 mg/kg/injection, schedule: Q04DX003 (ip), vehicle: saline with Tween-80.

Values joined by “and” are separate entries in the source; they are usually repeats but may differ in a detail not shown here. Equal entries are not always repeated. Inconclusive results and toxic doses are left out.

On to `Nc1nc(N)c(N=O)c(N)n1`, for which the T/C was 150 % of control under setting [1]; 111 % of control (dose: 200.0 mg/kg/injection, schedule: Q01DX009 (ip), vehicle: saline); 106 % of control (dose: 400.0 mg/kg/injection, schedule: Q01DX009 (ip), vehicle: saline).
For the compound `CCC(=N\NC(=S)NCCN(CC)CC)/C(C)=N/NC(=S)NCCN(CC)CC`, the T/C by setting is: (dose: 1.56 mg/kg/injection, schedule: Q01DX009 (ip), vehicle: saline) 116 % of control; (dose: 3.13 mg/kg/injection, schedule: Q01DX009 (ip), vehicle: saline) 105 % of control; (dose: 6.25 mg/kg/injection, schedule: Q01DX009 (ip), vehicle: saline) 106 % of control; (dose: 12.5 mg/kg/injection, schedule: Q01DX009 (ip), vehicle: saline) 109 % of control and 118 % of control.
For the compound `O=C(c1ccccc1)c1c2ccccc2c(C(=O)c2ccccc2)c2ccccc12`, the T/C reads like this: (dose: 100.0 mg/kg/injection, schedule: Q01DX009 (ip), vehicle: Klucel (hydroxypropylcellulose) (HPC)) 105 % of control; under setting [2], 91 % of control; (dose: 200.0 mg/kg/injection, schedule: Q01DX009 (ip), vehicle: Klucel (hydroxypropylcellulose) (HPC)) 100 % of control; (dose: 200.0 mg/kg/injection, schedule: Q04DX003 (ip), vehicle: Klucel (hydroxypropylcellulose) (HPC)) 100 % of control; under setting [3], 95 % of control.
With `CC(=O)OC(C(=O)NCc1ccccc1)C(OC(C)=O)C(C)OS(C)(=O)=O` (stereo not given), the T/C was 98 % of control under setting [4], 106 % of control under setting [5] and 89 % of control under setting [6].
For `NNc1nc2c(N)ncnc2n1C1OC(CO)C(O)C1O` (stereo not given), the T/C (dose: 50.0 mg/kg/injection, schedule: Q04DX003 (ip), vehicle: saline) was 108 % of control; the T/C (dose: 100.0 mg/kg/injection, schedule: Q04DX003 (ip), vehicle: saline) was 115 % of control; the T/C (dose: 200.0 mg/kg/injection, schedule: Q04DX003 (ip), vehicle: saline) was 101 % of control; the T/C (dose: 400.0 mg/kg/injection, schedule: Q04DX003 (ip), vehicle: saline) was 116 % of control.
`Nc1nc(N)c2cc(S(=O)(=O)c3ccccc3)ccc2n1`: the T/C under setting [4] is 92 % of control.
In the case of `Clc1ccc2c(c1)C(Br)c1cc(Cl)cc(Cl)c1-2` (stereo not given), the T/C by setting is: under setting [5], 108 % of control; under setting [6], 87 % of control; under setting [7], 87 % of control; under setting [8], 87 % of control.
In the case of `CCCCN1CCCC(O)C1` (stereo not given), the T/C (dose: 50.0 mg/kg/injection, schedule: Q01DX009 (ip), vehicle: saline) was 100 % of control; the T/C (dose: 50.0 mg/kg/injection, schedule: Q04DX003 (ip), vehicle: saline with Tween-80) is 105 % of control; the T/C under setting [1] was 100 % of control; the T/C under setting [9] is 110 % of control; the T/C under setting [7] is 100 % of control.
Consider `COC(=O)c1cc(=O)n(-c2ccccc2C(F)(F)F)c(SC)n1`, for which the T/C is, setting by setting: under setting [2], 116 % of control; under setting [3], 123 % of control.
Regarding `COC1(c2cccs2)OC1(C)C` (stereo not given), the T/C reads like this: under setting [5], 95 % of control; under setting [9], 100 % of control; under setting [6], 95 % of control; under setting [7], 91 % of control; (dose: 400.0 mg/kg/injection, schedule: Q01DX009 (ip), vehicle: saline with Tween-80) 95 % of control; under setting [8], 104 % of control.
`COCCc1ccncc1`: the T/C was 101 % of control under setting [5] and 97 % of control under setting [6].
Take `Cc1cc(S(=O)(=O)c2ccc(Cl)cc2)nc(S(=O)(=O)c2ccc(Cl)cc2)c1C#N`: the T/C reads like this: (dose: 50.0 mg/kg/injection, schedule: Q01DX005 (ip), vehicle: saline with Tween-80) 110 % of control; (dose: 100.0 mg/kg/injection, schedule: Q01DX005 (ip), vehicle: saline with Tween-80) 110 % of control.
On to `CC1(C)N=C(N)N=C(N)N1c1ccc(CCc2ccccc2)cc1`, for which the T/C runs as follows: (dose: 22.0 mg/kg/injection, schedule: Q01DX009 (ip), vehicle: saline with Tween-80) 104 % of control; (dose: 33.0 mg/kg/injection, schedule: Q01DX009 (ip), vehicle: saline with Tween-80) 100 % of control; under setting [4], 112 % of control.
Turning to `CC(=O)OC1C=CC(=O)OC1C1OC1C` (stereo not given), the T/C by setting is: (dose: 3.0 mg/kg/injection, schedule: Q01DX010 (ip), vehicle: carboxymethylcellulose (CMC)) 90 % of control; (dose: 6.0 mg/kg/injection, schedule: Q01DX010 (ip), vehicle: carboxymethylcellulose (CMC)) 90 % of control; (dose: 12.0 mg/kg/injection, schedule: Q01DX010 (ip), vehicle: carboxymethylcellulose (CMC)) 100 % of control; (dose: 25.0 mg/kg/injection, schedule: Q01DX010 (ip), vehicle: carboxymethylcellulose (CMC)) 109 % of control.
Consider `CCCCCC1(O)C2CCCC1CCC2` (stereo not given), for which the T/C reads like this: (dose: 50.0 mg/kg/injection, schedule: Q01DX001 (ip), vehicle: saline sonified) 105 % of control; (dose: 50.0 mg/kg/injection, schedule: Q01DX001 (ip), vehicle: suspension in saline) 98 % of control; (dose: 100.0 mg/kg/injection, schedule: Q01DX001 (ip), vehicle: saline sonified) 105 % of control; (dose: 100.0 mg/kg/injection, schedule: Q01DX001 (ip), vehicle: suspension in saline) 104 % of control; (dose: 200.0 mg/kg/injection, schedule: Q01DX001 (ip), vehicle: suspension in saline) 107 % of control.
Consider `NCCCC(NC(=O)CCCCCCCCN=C(N)N)C(O)CCCCCCCCN=C(N)N` (stereo not given), for which, under “dose: 3.75 mg/kg/injection, schedule: Q01DX010 (ip), vehicle: saline”, the T/C is 91 % of control.
Consider `C[n+]1c(-c2ccc(Cl)cc2Cl)c2cc(N)ccc2c2ccccc21`, for which the T/C was 98 % of control (dose: 0.09 mg/kg/injection, schedule: Q01DX009 (ip), vehicle: water); 90 % of control (dose: 0.19 mg/kg/injection, schedule: Q01DX009 (ip), vehicle: water); 98 % of control (dose: 0.39 mg/kg/injection, schedule: Q01DX009 (ip), vehicle: water); 98 % of control (dose: 0.78 mg/kg/injection, schedule: Q01DX009 (ip), vehicle: water); 102 % of control and 120 % of control (dose: 1.56 mg/kg/injection, schedule: Q01DX009 (ip), vehicle: water); 98 % of control and 112 % of control (dose: 3.12 mg/kg/injection, schedule: Q01DX009 (ip), vehicle: water).
